The test system of one series is P. berghei sporozoites. The arrangement: method as in Doggett et al., 2012; Frueh et al., 2017. Conditions: doses between 1 and 20 mg/kg, not the prodrug; ref Doggett et al., 2012; Frueh et al., 2017; cited from earlier work.
In series [1] the target is T1, P. falciparum bc1 complex cytochrome c reductase (Pfbc1) (Plasmodium falciparum, UniProt Q02768).
T1 construct: Parasite extract was then prepared by disruption with a sonicating probe; endogenous in cells; host or cells: P. falciparum strain 3D7 blood-stage culture, sonicated parasite extract
T1 sequence (Q02768 1-376): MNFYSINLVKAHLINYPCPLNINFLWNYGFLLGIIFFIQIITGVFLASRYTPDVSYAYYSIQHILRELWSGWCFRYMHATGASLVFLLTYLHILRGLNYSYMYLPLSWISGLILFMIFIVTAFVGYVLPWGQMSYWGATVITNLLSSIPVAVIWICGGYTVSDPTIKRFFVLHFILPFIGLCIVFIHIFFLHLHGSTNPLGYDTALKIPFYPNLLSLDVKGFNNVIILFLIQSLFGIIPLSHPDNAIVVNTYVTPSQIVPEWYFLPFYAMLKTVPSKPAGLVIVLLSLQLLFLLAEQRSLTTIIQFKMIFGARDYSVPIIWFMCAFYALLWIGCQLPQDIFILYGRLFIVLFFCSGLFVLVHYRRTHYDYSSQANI
The series can be described thus: Pfbc1 native assay (cytochrome c reduction by parasite extract). It is filed as biochemical. As to conditions: atovaquone 1 μM positive control, X ± S.D., N = 4. The method, then: P. falciparum 3D7 strain were obtained from the Liverpool School of Tropical Medicine. Protease cocktail inhibitor was obtained from Roche. Bradford protein assay dye reagent was obtained from Bio-Rad. All other reagents were obtained from Sigma-Aldrich. Decylubiquinol was produced as per Fisher et al. ([2009]). In brief, 25 mg of decylubiquinone were dissolved in 400 μL of nitrogen-saturated hexane. An equal volume of aqueous 1 M sodium dithionite was added, and the mixture vortexed until colorless. The organic phase containing the decylubiquinol was collected, the solvent was evaporated under N2 and the decylubiquinol finally dissolved in 100 μL of 96% ethanol (acidified with 10 mM HCl). Concentrations of decylubiquinol was determined spectrophotometrically on a Cary 300 Bio UV/visible spectrophotometer (Varian, UK) from absolute spectra, using ε288−−320 = 8.1 mM^−1.cm^−1. Decylubiquinol was stored at −80°C and used within 2 weeks. […]
The protocol for the preparation of parasite extract was adapted from Fisher et al. ([2009]). […] The protein concentration of the parasite extract was determined by Bradford protein assay (Bio-Rad).
P. falciparum bc1 complex cytochrome c reductase (Pfbc1) activity was measured by monitoring cytochrome c reduction at 550 vs. 542 nm using a Cary 300 Bio UV-Visible Spectrophotometer (Varian, UK), using a protocol adapted from Fisher et al. ([2009]). […]

Series [2] is described as follows: Kinetic solubility in PBS pH 7.4 (Chem Partners). As to conditions: PBS, pH 7.4, aqueous buffer, kinetic from dmso stock. The procedure:
The effects of changing R1 as 7-Et, 7-Me, 6-CF3, or 6-Me on activity against RH strain tachyzoites, kinetic solubility, and metabolic stability were compared. Kinetic solubility and metabolic stability in human or murine liver microsomes were measured. The hERG (human Ether-à-go-go-Related) liability was also determined. The hERG gene (KCNH2) encodes a protein Kv11.1, the alpha subunit of a potassium ion channel. This channel conducts the rapid component of the delayed rectifier potassium current, IKr, which is critical for repolarization of cardiac action potentials. A reduction in hERG currents from adverse drug effects can lead to long QT interval syndromes. These syndromes are characterized by action potential prolongation, lengthening of the QT interval on surface EKG, and an increased risk for “torsade de pointes” arrhythmias and sudden death. The MDCK-MDR1 Permeability Assay was also performed. MDCK-MDR1 refers to the ability of a compound to permeate across membranes of MDCK-MDR1 (Madin Darby canine kidney [MDCK] cells with the MDR1 gene [ABCB1], the gene encoding for the efflux protein, P-glycoprotein (P-gp)) in vitro. Assessing transport in both directions (apical to basolateral and basolateral to apical) across the cell monolayers enables an efflux ratio to be determined. […] This provides a prediction of blood brain barrier (BBB) penetration potential/permeability and efflux ratio. Effect in CACO-2 (Colon Adenocarcinoma cells) as a permeability assay and on cytochrome P450 (CYP 450) were also determined. CYP enzymes catalyze oxidative biotransformation (phase 1 metabolism) of most drugs. CYP enzymes, bind to membranes in a cell (cyto) and contain a heme pigment (chrome and P) that absorbs light at a wavelength of 450 nm when exposed to carbon monoxide. Metabolism of a drug by CYP enzymes is a major source of variability in drug effect. These were measured by Chem Partners. The relative effect on HFF and parasite enzymes also were compared.

The test system of series [3] is T. gondii RH-YFP tachyzoites. The series can be described thus: In vitro challenge assay, RH strain YFP tachyzoites in HFF. It is filed as cell-based. Conditions: Toxoplasma gondii; RH-YFP tachyzoites in HFF; Figure 1A; read-out: Tachy IC50. The procedure: RH strain YFP Tachyzoites. Protocol was adapted from Fomovska et al. ([2012a],[b]) for HFF. HFF were cultured on a flat, clear-bottomed, black 96-well plate to 90–100% confluence. IMDM (1x, [+] glutamine, [+] 25 mM HEPES, [+] Phenol red, 10% FBS [Gibco, Denmark]) was removed and replaced with IMDM-C(1x, [+] glutamine, [+] 25 mM HEPES, [–] Phenol red, 10% FBS)[Gibco, Denmark]). RH-YFP, lysed from host cells by passing twice through a 27-gauge needle, were counted, then diluted to 32,000/mL in IMDM-C. HFF were infected with 3200 RH-YFP, then returned to 37°C, CO2 (5%) incubator for 1–2 h for infection. Various concentrations of the compounds in 20 μL IMDM-C were added to each well. There were triplicates for each condition. Controls were pyrimethamine/sulfadiazine (standard treatment), 0.1% DMSO only, HFF only, and untreated cultures of HFF infected with 2-fold dilutions of YFP expressing parasites (called “YFP gradient” to establish amount of color from known numbers of YFP expressing parasites). Cells were incubated at 37°C for 72 h. Plates were read using a fluorimeter (Synergy H4 Hybrid Reader, BioTek) to ascertain amount of relative fluorescence units (RFU) YFP, to measure parasite burden after treatment. Data were collected using Gen5 software with IC50 calculated by graphical analysis in Excel.
An initial screening assay of 10 μM, 1 μM, 100 nM, and 10 nM of the compounds was performed. Compounds were not considered effective or pursued for further analysis if there was no inhibition of tachyzoites at 1 μM. If compounds were effective at 1 μM, another experiment was performed to assess effect at 1 μM, 500, 250, 125, 62.5, and 31.25 nM.

In brackets after ≈: the same amount, converted by molar mass.

In general, inhibition refers to the drop in the measured response relative to a control, in per cent. A lower inhibition goes with a response near the control. As usually defined, the kinetic solubility is the concentration staying in solution when a stock, usually in DMSO, is diluted into the medium. In general, IC50 refers to the concentration at which inhibition is half-maximal.

As for `COc1cc2[nH]c(C)c(-c3ccc(Oc4ccc(OC(F)(F)F)cc4)cc3)c(=O)c2cc1Cl` [ELQ 300], the “efficacy in the in vivo malaria model” value with P. berghei sporozoites is “not effective”.

In turn, `O=c1c2c([nH]c(CO)c1-c1ccc(Oc3ccc(OC(F)(F)F)cc3)cc1)CCCC2` [JAG099] returned an inhibition at 1 µM in series [1] of 81.3 ± 6%. Also, the solubility (kinetic) in series [2] stood at 4.05 µM (≈ 1.75 µg/mL). Besides, the IC50 in series [3] stood at 380 nM.

The record behind these values is article PMC7311950, “Potent Tetrahydroquinolone Eliminates Apicomplexan Parasites” (Frontiers in Cellular and Infection Microbiology, 2020).
